Measured values published in patent publication US10703733B2, “MCL-1 inhibitors” (Gilead Sciences, Inc., priority 2018, dated 2020).
pEC50: −log10 of the molar value.

Each molecule was assayed on SKBR3 cells (assay: SKBR3 Cell Viability Assay (CellTiter Glo)). Conditions: 72 hours, CellTiter Glo luminescence, read-out: MCL-1 CV SKBR3 EC50.
Assay type: cell-based
Experimental: SKBR3 Cell Viability Assay Materials
SKBR3 Cells (ATCC HTB-30) were obtained from ATCC (Manassas, Va.) and cultured in McCoy 5A's medium (ATCC 30-2007)+10% fetal bovine serum (SH30071.03, HyClone, Pittsburgh, Pa.) plus 1× Penicillin-Streptomycin L-glutamine (Corning 30-009-C1, Corning, N.Y.)).
The cell viability assay was conducted in a 384-well tissue culture plate (Grenier 781086, Monroe, N.C.) in a total volume of 70 μL. Test compounds were prepared in 1,000×, serially diluted, and pre-spotted into 384-well tissue culture plate by Echo 555 Liquid Handler (Labcyte Inc., San Jose, Calif.). Seventy μl of 6,000 SKBR3 cells were dispensed into each well of the plate and incubated at 37° C. with 5% CO2 for 72 hours. At the end of incubation, 2× CellTiter Glo (CTG) reagents (1 part buffer with 2 parts substrate) (Promega, Madison, Wis.) were prepared, and the plate and the reagent were equilibrated to room temperature for 30 minutes. CTG reagent was added to each plate by Biomek FX at 20 μL/well with 5 times pipetting and mixing to induce cell lysis. Luminescence was read by Envision multimode reader (PerkinElmer). […] Percent inhibition was calculated as followed: % Inhibition=100%*(Well−Neg)/(Pos−Neg) Neg, negative control, DMSO Pos, positive control, 10 μM Puromycin

Point of comparison: `CCC(=O)N[S@@]1(=O)=NC(=O)c2ccc3c(c2)N(C[C@@H]2CC[C@H]2[C@@H](O)/C=C/CCC1)C[C@@]1(CCCc2cc(Cl)ccc21)CO3` [Example 62], pEC50 5.61. Against it:
- CO[C@H]1/C=C/CCC[S@@](N)(=O)=NC(=O)c2ccc3c(c2)N(C[C@@H]2CC[C@H]21)C[C@@]1(CCCc2cc(Cl)ccc21)CO3 [Example 5] — 0.61 log units lower, 5.00
- CO[C@H]1/C=C/C[C@H](C)[C@@H](C)[S@@](=O)(NC(=O)c2cnn(C3COC3)c2)=NC(=O)c2ccc3c(c2)N(C[C@@H]2CC[C@H]21)C[C@@]1(CCCc2cc(Cl)ccc21)CO3 [Example 152] — 1.64 log units higher, 7.25
- CCC(=O)N[S@]1(=O)=NC(=O)c2ccc3c(c2)N(C[C@@H]2CC[C@H]2[C@@H](O)/C=C/CCC1)C[C@@]1(CCCc2cc(Cl)ccc21)CO3 [Example 63] — 0.60 log units lower, 5.01
- CCNC(=O)N[S@@]1(=O)=NC(=O)c2ccc3c(c2)N(C[C@@H]2CC[C@H]2[C@@H](OC)CCCCC1)C[C@@]1(CCCc2cc(Cl)ccc21)CO3 [Example 14] — 0.84 log units higher, 6.45
- CCOC(=O)N[S@]1(=O)=NC(=O)c2ccc3c(c2)N(C[C@@H]2CC[C@H]2[C@@H](OC)/C=C/CCC1)C[C@@]1(CCCc2cc(Cl)ccc21)CO3 [Example 9] — 0.50 log units lower, 5.11
- CCC(=O)N[S@]1(=O)=NC(=O)c2ccc3c(c2)N(C[C@@H]2CC[C@H]2[C@@H](OC)/C=C/CCCC1)C[C@@]1(CCCc2cc(Cl)ccc21)CO3 [Example 69] — 0.50 log units lower, 5.11
- CCNC(=O)N[S@@]1(=O)=NC(=O)c2ccc3c(c2)N(C[C@@H]2CC[C@H]2[C@@H](OC)CCCCC1)C[C@@]1(CCCc2cc(Cl)ccc21)CO3 [Example 13] — within 0.2 log units, 5.48
- CCC(=O)N[S@@]1(=O)=NC(=O)c2ccc3c(c2)N(C[C@@H]2CC[C@H]2[C@@H](OC)CCCCC1)C[C@@]1(CCCc2ccccc21)CO3 [Example 16] — 0.61 log units lower, 5.00
- CCC(=O)N[S@@]1(=O)=NC(=O)c2ccc3c(c2)N(C[C@@H]2CC[C@H]2[C@@H](OC)CCCCC1)C[C@@]1(CCCc2cc(Cl)ccc21)CO3 [Example 11] — 0.61 log units lower, 5.00
- COC1Cc2cc(C(=O)N[S@@]3(=O)=NC(=O)c4ccc5c(c4)N(C[C@@H]4CC[C@H]4[C@@H](OC)/C=C/C[C@H](C)C3)C[C@@]3(CCCc4cc(Cl)ccc43)CO5)cn2C1 (stereo partly shown) [Example 205] — 1.62 log units higher, 7.23

Same assay, conditions: Homo sapiens, SK-BR-3, 72 h, CellTiter Glo luminescence, read-out: MCL-1 CV SKBR3 EC50

Point of comparison: `CO[C@H]1/C=C/C[C@H](C)C[S@@](=O)(NC(=O)C2CC(OC(F)F)C2)=NC(=O)c2ccc3c(c2)N(C[C@@H]2CC[C@H]21)C[C@@]1(CCCc2cc(Cl)ccc21)CO3` (stereo partly shown) [Example 431], pEC50 6.63. Against it:
- CO[C@H]1/C=C/C[C@H](C)[C@@H](C)[S@@](=O)(NC(=O)C(F)(F)F)=NC(=O)c2ccc3c(c2)N(C[C@@H]2CC[C@H]21)C[C@@]1(CCCc2cc(Cl)ccc21)CO3 [Example 370] — 1.39 log units lower, 5.24
